Data as given in ChEMBL document CHEMBL4130353, “2-Substituted 3,7,8-trimethylnaphtho[1,2-b]furan-4,5-diones as specific L-shaped NQO1-mediated redox modulators for the treatment of non-small cell lung cancer” (Eur J Med Chem, 2017).
Active and inactive are the calls of the source. The rule behind the calls is not given here.

Tests used:
[1] = biological target: NAD(P)H dehydrogenase [quinone] 1 (Homo sapiens) (UniProt P15559); experiment: Substrate activity at NQO1 in human A549 cells assessed as induction of ROS-induced p38 phosphorylation at T180/Y182 after 3 hrs by Western blot analysis; assay type: cell-based
Chain of NAD(P)H dehydrogenase [quinone] 1 (Homo sapiens) (P15559 whole entry): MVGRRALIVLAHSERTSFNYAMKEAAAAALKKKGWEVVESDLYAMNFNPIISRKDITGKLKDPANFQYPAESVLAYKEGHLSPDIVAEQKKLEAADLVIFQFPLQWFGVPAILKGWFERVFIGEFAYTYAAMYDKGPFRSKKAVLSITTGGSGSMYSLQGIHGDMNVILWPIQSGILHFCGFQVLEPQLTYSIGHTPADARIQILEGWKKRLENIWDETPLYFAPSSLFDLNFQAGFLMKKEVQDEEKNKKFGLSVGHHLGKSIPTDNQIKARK

[2] = biological target: T1, NADPH--cytochrome P450 reductase (Homo sapiens, UniProt P16435); experiment: Substrate activity at human CPR expressed in baculovirus expression system assessed as reduction rate by measuring umol of NADPH utilized per umol of enzyme at 10 uM preincubated for 3 mins followed by NADPH addition measured at 2 secs interval for 5 mins by UV-Vis spectroscopy; assay type: ADME
T1 sequence (P16435 whole entry): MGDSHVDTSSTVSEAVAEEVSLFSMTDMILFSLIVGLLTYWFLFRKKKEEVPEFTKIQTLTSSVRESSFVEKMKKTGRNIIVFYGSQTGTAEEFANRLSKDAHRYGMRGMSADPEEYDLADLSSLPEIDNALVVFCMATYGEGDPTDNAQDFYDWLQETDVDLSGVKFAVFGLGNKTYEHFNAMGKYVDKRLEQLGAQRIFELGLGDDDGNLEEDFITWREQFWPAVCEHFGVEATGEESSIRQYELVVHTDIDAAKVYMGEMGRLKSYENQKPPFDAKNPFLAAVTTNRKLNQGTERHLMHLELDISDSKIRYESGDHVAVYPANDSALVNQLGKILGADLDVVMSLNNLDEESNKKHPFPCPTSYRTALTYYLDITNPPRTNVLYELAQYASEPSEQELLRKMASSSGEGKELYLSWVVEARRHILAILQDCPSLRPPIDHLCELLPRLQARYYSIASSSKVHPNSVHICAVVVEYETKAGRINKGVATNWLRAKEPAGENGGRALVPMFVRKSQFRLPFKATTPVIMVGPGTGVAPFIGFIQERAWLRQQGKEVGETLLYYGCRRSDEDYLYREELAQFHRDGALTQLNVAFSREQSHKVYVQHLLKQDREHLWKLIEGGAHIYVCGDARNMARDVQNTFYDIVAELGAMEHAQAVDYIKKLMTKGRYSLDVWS

HepG2 = experiment: Cytotoxicity against human HepG2 cells assessed as cell growth inhibition preincubated for 24 hrs followed by compound washout measured after 72 hrs by MTT assay; assay type: functional, cell-based
HCT-116 = experiment: Cytotoxicity against human HCT116 cells assessed as cell growth inhibition preincubated for 24 hrs followed by compound washout measured after 72 hrs by MTT assay; assay type: functional, cell-based
NCI-H596 = experiment: Cytotoxicity against human NCI-H596 cells assessed as cell growth inhibition preincubated for 24 hrs followed by compound washout measured after 72 hrs by MTT assay; assay type: functional, cell-based
L02 [3] = experiment: Cytotoxicity against human L02 cells assessed as cell growth inhibition preincubated for 24 hrs followed by compound washout measured after 72 hrs by MTT assay; assay type: cell-based
[4] = biological target: NAD(P)H dehydrogenase [quinone] 1 (Homo sapiens) (UniProt P15559); experiment: Substrate activity at NQO1 in human A549 cells assessed as induction of enzyme-catalyzed ROS production at 10 uM after 1 to 3 hrs in presence of NAC by DCFH-DA-based flow cytometry; assay type: cell-based
L02 [5] = experiment: Induction of intracellular ROS levels in human L02 cells at 10 uM after 1 to 3 hrs by DCFH-DA-based flow cytometry; assay type: cell-based; conditions: l02, 10 µM
A549 [6] = experiment: Effect on total AKT protein levels in human A549 cells at 5 uM after 3 hrs by Western blot analysis relative to control; assay type: ADME, cell-based; conditions: a549, 3 h
A549 [7] = experiment: Effect on total AKT protein levels in human A549 cells at 10 uM after 3 hrs in presence of NAC by Western blot analysis relative to control; assay type: ADME, cell-based; conditions: a549, 3 h
A549 [8] = experiment: Effect on total AKT protein levels in human A549 cells at 10 uM after 3 hrs in presence of DIC by Western blot analysis relative to control; assay type: ADME, cell-based; conditions: a549, 3 h
[9] = biological target: NAD(P)H dehydrogenase [quinone] 1 (Homo sapiens) (UniProt P15559); experiment: Substrate activity at NQO1 in human A549 cells assessed as induction of ROS-induced Akt phosphorylation at S473 at 1 uM after 3 hrs by Western blot analysis relative to control; assay type: cell-based
[10] = biological target: NAD(P)H dehydrogenase [quinone] 1 (Homo sapiens) (UniProt P15559); experiment: Substrate activity at NQO1 in human A549 cells assessed as induction of ROS-induced Akt phosphorylation at […] at 10 uM after 3 hrs in presence of NAC by Western blot analysis relative to control; assay type: cell-based
[11] = biological target: NAD(P)H dehydrogenase [quinone] 1 (Homo sapiens) (UniProt P15559); experiment: Substrate activity at NQO1 in human A549 cells assessed as induction of ROS-induced Akt phosphorylation at […] at 10 uM after 3 hrs in presence of DIC by Western blot analysis relative to control; assay type: cell-based
[12] = biological target: NAD(P)H dehydrogenase [quinone] 1 (Homo sapiens) (UniProt P15559); experiment: Substrate activity at NQO1 in human A549 cells assessed as induction of ROS-induced JNK phosphorylation at 5 uM after 3 hrs by Western blot analysis relative to control; assay type: cell-based
A549 [13] = experiment: Effect on total p38 protein levels in human A549 cells at 10 uM after 3 hrs in presence of NAC by Western blot analysis relative to control; assay type: ADME, cell-based; conditions: a549, 3 h
A549 [14] = experiment: Effect on total ERK protein levels in human A549 cells at 1 uM after 3 hrs by Western blot analysis relative to control; assay type: ADME, cell-based; conditions: a549, 3 h
A549 [15] = experiment: Effect on total ERK protein levels in human A549 cells at 10 uM after 3 hrs by Western blot analysis relative to control; assay type: ADME, cell-based; conditions: a549, 3 h
A549 [16] = experiment: Effect on total ERK protein levels in human A549 cells at 10 uM after 3 hrs in presence of DIC by Western blot analysis relative to control; assay type: ADME, cell-based; conditions: a549, 3 h
[17] = biological target: NAD(P)H dehydrogenase [quinone] 1 (Homo sapiens) (UniProt P15559); experiment: Substrate activity at NQO1 in human A549 cells assessed as induction of ROS-induced ERK phosphorylation at 10 uM after 3 hrs in presence of DIC by Western blot analysis relative to control; assay type: cell-based
[18] = biological target: NAD(P)H dehydrogenase [quinone] 1 (Homo sapiens) (UniProt P15559); experiment: Substrate activity at NQO1 in human A549 cells assessed as induction of ROS-induced Akt phosphorylation at S473 after 3 hrs by Western blot analysis; assay type: cell-based
A549 [19] = experiment: Induction of apoptosis in human A549 cells assessed as nuclei condensation at 0.1 to 5 uM after 24 hrs by DAPI-staining based microscopy; assay type: functional, cell-based
A549 [20] = experiment: Induction of apoptosis in human A549 cells assessed as chromatin condensation after 24 hrs by DAPI-staining based microscopy; assay type: functional, cell-based
A549 [21] = experiment: Antitumor activity against human A549 cells xenografted in athymic nude mouse assessed as tumor growth inhibition at 30 mg/kg, iv administered every other day for 3 weeks measured every day during compound dosing relative to control; assay type: functional; conditions: 504 h, read-out: TGI
A549 [22] = experiment: Antitumor activity against human A549 cells xenografted in athymic nude mouse assessed as tumor growth inhibition at 50 mg/kg, iv administered every other day for 3 weeks measured every day during compound dosing relative to control; assay type: functional; conditions: 504 h, read-out: TGI
Mus musculus = experiment: Toxicity in athymic nude mouse xenografted with human A549 cells assessed as reduction in body weight at 50 mg/kg, iv administered every other day for 3 weeks relative to control; assay type: organism-based; parameters: scale not given: the % may be the effect or the level left; conditions: in vivo, 504 h
A549 [23] = experiment: Reduction of intracellular NADPH levels in human A549 cells xenografted in athymic nude mouse at 15 to 30 mg/kg, iv administered every other day for 3 weeks by fluorescent NADP+/NADPH detection based assay; assay type: functional, organism-based
A549 [24] = experiment: Reduction of intracellular GSH levels in human A549 cells xenografted in athymic nude mouse at 15 to 30 mg/kg, iv administered every other day for 3 weeks by fluorescence-based assay; assay type: functional, organism-based

Activity [1]: Dose-dependent effect
Activity [2]: 73 µmol NADPH/min/µmol enzyme
Activity [4]: inactive
fold change (FC) (A549 [6]): 1.14
fold change (FC) (A549 [7]): 1.07
fold change (FC) (A549 [8]): 1.15
fold change (FC) [9]: 1.51
fold change (FC) [10]: 2.8
fold change (FC) [11]: 1.96
fold change (FC) [12]: 25.4
fold change (FC) (A549 [13]): 0.99
fold change (FC) (A549 [14]): 1.01
fold change (FC) (A549 [15]): 1.02
fold change (FC) (A549 [16]): 0.87
fold change (FC) [17]: 1.27
Activity [18]: Dose-dependent effect
Compound: Cc1cc2c(cc1C)-c1oc(CNc3ccc(CN4CCOCC4)cc3)c(C)c1C(=O)C2=O
IC50 (HepG2): 4.3 µM
IC50 (HCT-116): 4.9 µM
IC50 (NCI-H596): 30 µM
IC50 (L02 [3]): 35 µM
Activity (L02 [5]): Non-Toxic
Activity (A549 [19]): Active
Activity (A549 [20]): Dose-dependent effect
inhibition in vivo at 30 mg/kg (A549 [21]): 87.1%
inhibition in vivo at 50 mg/kg (A549 [22]): 90.3%
Activity (Mus musculus): 18%
Activity (A549 [23]): Active
Activity (A549 [24]): Active
